US20110274651A1, “Noscapine and Noscapine Analogs and Their Use in treating Infectious Diseases by Tubulin Binding Inhibition” (priority 2008, published 2011)
Where two headings read alike, the source gives them in different places.

Columns and labels:
vaccinia virus = test: Plaque assay of vaccinia virus in BSC-40 cells; format: cell-based
tubulin [1] = settings: literature values, refs [18], [12], [43]; read-out: dissociation constant (Kd) binding to tubulin; cited from earlier work
tubulin [2] = target: T1, tubulin; test: Tubulin binding assay (fluorescence titration, quenching of intrinsic tubulin fluorescence); parameters: species or system Mammalian; settings: double reciprocal plots; 0-100 μM ligand, 2 μM tubulin, 45 min at 37° C.; read-out: dissociation constant (Kd) binding to tubulin
T1 construct: other: double reciprocal plots; 0-100 μM ligand, 2 μM tubulin, 45 min at

| SMILES | Kd (tubulin [1]) [µM] | Kd (tubulin [2]) [µM] | other results |
| --- | --- | --- | --- |
| COc1ccc2c(c1OC)C(=O)O[C@@H]2[C@H]1c2c(c(Br)c3c(c2OC)OCO3)CCN1C [9-Br-nos, (S)-6,7-dimethoxy-3-((R)-4-methoxy-6-methyl-9-bromo-5,6,7,8-tetrahydro-[1,3]dioxolo[4,5-g]isoquinolin-5-yl)isobenzofuran-1(3H)-one] | 54 ± 9.1 |  | spread of vaccinia virus in BSC-40 cells (vaccinia virus): inhibited; prevention of infection (vaccinia virus; 25 uM in 0.1% DMSO): does not prevent infection; plaque appearance (vaccinia virus; 25 uM in 0.1% DMSO, FIG. 1): only small “pinpoint” plaques are evident |
| COc1ccc2c(c1OC)C(=O)O[C@@H]2[C@H]1c2c(c(I)c3c(c2OC)OCO3)CCN1C [9-I-nos, (S)-6,7-dimethoxy-3-((R)-4-methoxy-6-methyl-9-iodo-5,6,7,8-tetrahydro-[1,3]dioxolo[4,5-g]isoquinolin-5-yl)isobenzofuran-1(3H)-one] |  | 22 ± 4 |  |
| COc1ccc2c(c1OC)C(=O)O[C@@H]2[C@H]1c2c(c(F)c3c(c2OC)OCO3)CCN1C [9-F-nos, (S)-6,7-dimethoxy-3-((R)-4-methoxy-6-methyl-9-fluoro-5,6,7,8-tetrahydro-[1,3]dioxolo[4,5-g]isoquinolin-5-yl)isobenzofuran-1(3H)-one] |  | 81 ± 8 |  |
| COc1ccc2c(c1OC)C(=O)O[C@@H]2[C@H]1c2c(cc3c(c2OC)OCO3)CCN1C [noscapine, (S)-6,7-dimethoxy-3-((R)-4-methoxy-6-methyl-5,6,7,8-tetrahydro-[1,3]dioxolo[4,5-g]isoquinolin-5-yl)isobenzofuran-1(3H)-one] | 144 ± 2.8 |  |  |
| COc1ccc2c(c1OC)C(=O)O[C@@H]2[C@H]1c2c(c(Cl)c3c(c2OC)OCO3)CCN1C [9-Cl-nos] | 40 ± 8 |  |  |
